Where “and” joins values, the source holds several entries; their conditions need not be identical. Equal values may be shown once.
System: thromboxane analog U46619 induced PAH in minipigs
Test: Haemodynamics (PAP, BP) in the anesthetized thromboxane challenged PAH minipig after inhaled (nebulized) application (C-2.1)
Type: in vivo, Göttingen minipig
Conditions: for BP % change vs. baseline / PAP % change vs. baseline: 100 μg/kg nominal dose, individual animals
How it was run: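 Anesthetized, ventilated Göttingen minipigs (2-6 kg) given continuous infusion (0.3-0.75 μg/kg/min) to raise mean PAP above 25 mmHg, dosing starting after a 30 min plateau. Compound in 1% DMSO/0.2% citric acid, pH 8, nebulized via Aeroneb Pro into the inspiratory arm (~7 min; stock 300 μg/kg). PAP by Swan-Ganz catheter, BP via carotid catheter.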

[1] = inhaled 30 μg/kg, 0 min vs. start inhalation
[2] = inhaled 30 μg/kg, 10 min vs. start inhalation
[3] = inhaled 30 μg/kg, 20 min vs. start inhalation
[4] = inhaled 30 μg/kg, 30 min vs. start inhalation
[5] = inhaled 30 μg/kg, 40 min vs. start inhalation
[6] = inhaled 30 μg/kg, 50 min vs. start inhalation
[7] = inhaled 30 μg/kg, 60 min vs. start inhalation
[8] = inhaled 30 μg/kg, 70 min vs. start inhalation
[9] = inhaled 30 μg/kg, 80 min vs. start inhalation
[10] = inhaled 30 μg/kg, 90 min vs. start inhalation
[11] = inhaled 30 μg/kg, 100 min vs. start inhalation
[12] = inhaled 30 μg/kg, 110 min vs. start inhalation
[13] = inhaled 30 μg/kg, 120 min vs. start inhalation
[14] = inhaled 30 μg/kg, 130 min vs. start inhalation
[15] = inhaled 30 μg/kg, 140 min vs. start inhalation
[16] = inhaled 30 μg/kg, 150 min vs. start inhalation
[17] = inhaled 30 μg/kg, 160 min vs. start inhalation
[18] = inhaled 30 μg/kg, 170 min vs. start inhalation
[19] = inhaled 30 μg/kg, 180 min vs. start inhalation
[20] = inhaled 30 μg/kg, 190 min vs. start inhalation
[21] = inhaled 30 μg/kg, 200 min vs. start inhalation
[22] = inhaled 30 μg/kg, 210 min vs. start inhalation
[23] = inhaled 30 μg/kg, 220 min vs. start inhalation
[24] = inhaled 30 μg/kg, 230 min vs. start inhalation
[25] = inhaled 30 μg/kg, 240 min vs. start inhalation
[26] = inhaled 30 μg/kg, −5 min vs. start inhalation

O=C(O)CCCCN(CCc1ccccc1OCc1ccc(CCc2ccccc2)cc1)Cc1ccc(C(=O)O)cc1 [comparative example 1, 4-[((4Carboxybutyl)-{2-[(4-phenethylbenzyl)oxy]phenethyl}amino)methyl]benzoic acid]
% changes in BP vs baseline (inhaled 10 μg/kg, 0 min vs. start inhalation, listed as Cinaciguat): 100% and 101%
% changes in BP vs baseline (inhaled 10 μg/kg, 10 min vs. start inhalation, listed as Cinaciguat): 89% and 86%
% changes in BP vs baseline (inhaled 10 μg/kg, 20 min vs. start inhalation, listed as Cinaciguat): 83% and 82%
% changes in BP vs baseline (inhaled 10 μg/kg, 30 min vs. start inhalation): 82%
% changes in BP vs baseline (inhaled 10 μg/kg, 40 min vs. start inhalation): 84%
% changes in BP vs baseline (inhaled 10 μg/kg, 50 min vs. start inhalation, listed as Cinaciguat): 87% and 85%
% changes in BP vs baseline (inhaled 10 μg/kg, 60 min vs. start inhalation, listed as Cinaciguat): 91% and 87%
% changes in BP vs baseline (inhaled 10 μg/kg, 70 min vs. start inhalation, listed as Cinaciguat): 94% and 88%
% changes in BP vs baseline (inhaled 10 μg/kg, 80 min vs. start inhalation, listed as Cinaciguat): 95% and 90%
% changes in BP vs baseline (inhaled 10 μg/kg, 90 min vs. start inhalation, listed as Cinaciguat): 99% and 92%
% changes in BP vs baseline (inhaled 10 μg/kg, −5 min vs. start inhalation, listed as Cinaciguat): 100% and 99%

O=C(O)c1ccc(CCN(CCc2cc(F)ccc2OCc2ccc(-c3nc4cc(Cl)ccc4o3)cc2)C2CCCc3nc(C(=O)O)ccc32)cc1 (single isomer, unassigned) [comparative example 4, 5-{[2-(4-Carboxyphenyl)ethyl][2-(2-{[4-(5-chloro-1,3-benzoxazol-2-yl)benzyl]oxy}-5-fluorophenyl)-ethyl]amino}-5,6,7,8-tetrahydroquinoline-2-carboxylic acid]
BP % change vs. baseline (inhaled, time 80 min): 101.1% and 101.2% and 101.0%
PAP % change vs. baseline (inhaled, time 80 min): 102.0% and 96.2% and 97.5%
BP % change vs. baseline (inhaled, time 90 min): 98.7% and 100.3% and 101.0%
PAP % change vs. baseline (inhaled, time 90 min): 100.2% (2×) and 102.2%
BP % change vs. baseline (inhaled, time 100 min): 101.1% and 100.3% and 98.3%
PAP % change vs. baseline (inhaled, time 100 min): 100.0% and 93.1% and 96.4%
BP % change vs. baseline (inhaled, time 110 min): 99.9% and 102.2% and 98.3%
PAP % change vs. baseline (inhaled, time 110 min): 97.2% and 88.9% and 89.8%
BP % change vs. baseline (inhaled, time 120 min): 101.1% and 101.2% and 101.9%
PAP % change vs. baseline (inhaled, time 120 min): 86.5% and 86.2% and 86.0%
BP % change vs. baseline (inhaled, time 130 min): 99.9% and 99.4% and 100.1%
PAP % change vs. baseline (inhaled, time 130 min): 77.5% and 78.6% and 84.6%
BP % change vs. baseline (inhaled, time 140 min): 99.9% and 99.4% and 100.1%
PAP % change vs. baseline (inhaled, time 140 min): 76.3% and 77.7% and 81.3%
BP % change vs. baseline (inhaled, time 150 min): 99.9% and 98.5% and 100.1%
PAP % change vs. baseline (inhaled, time 150 min): 77.3% and 75.0% and 78.7%
BP % change vs. baseline (inhaled, time 160 min): 99.9% and 96.7% and 99.2%
PAP % change vs. baseline (inhaled, time 160 min): 75.5% and 71.4% and 77.3%
BP % change vs. baseline (inhaled, time 170 min): 101.1% and 97.6% and 99.2%
PAP % change vs. baseline (inhaled, time 170 min): 72.1% and 71.9% and 75.1%
BP % change vs. baseline (inhaled, time 180 min): 102.3% and 95.8% and 99.2%
PAP % change vs. baseline (inhaled, time 180 min): 74.0% and 68.0% and 75.9%
BP % change vs. baseline (inhaled, time 190 min): 102.3% and 95.8% and 99.2%
PAP % change vs. baseline (inhaled, time 190 min): 74.5% and 65.0% and 77.1%
BP % change vs. baseline (inhaled, time 200 min): 102.3% and 94.0% and 99.2%
PAP % change vs. baseline (inhaled, time 200 min): 70.1% and 70.6% and 77.2%
BP % change vs. baseline (inhaled, time 210 min): 103.5% and 94.0% and 99.2%
PAP % change vs. baseline (inhaled, time 210 min): 70.8% and 65.6% and 76.8%
BP % change vs. baseline (inhaled, time 220 min): 105.9% and 95.8% and 98.3%
PAP % change vs. baseline (inhaled, time 220 min): 77.8% and 66.7% and 75.3%
BP % change vs. baseline (inhaled, time 230 min): 107.1% and 94.9% and 97.4%
PAP % change vs. baseline (inhaled, time 230 min): 82.5% and 71.3% and 73.9%
BP % change vs. baseline (inhaled, time 240 min): 107.1% and 94.0% and 97.4%
PAP % change vs. baseline (inhaled, time 240 min): 81.0% and 67.4% and 75.0%
BP % change vs. baseline (inhaled, time 250 min): 109.4% and 94.9% and 98.3%
PAP % change vs. baseline (inhaled, time 250 min): 79.0% and 72.2% and 75.0%
BP % change vs. baseline (inhaled, time 260 min): 107.1% and 94.9% and 98.3%
PAP % change vs. baseline (inhaled, time 260 min): 75.0% and 72.7% and 76.7%
BP % change vs. baseline (inhaled, time 270 min): 107.1% and 94.9% and 97.4%
PAP % change vs. baseline (inhaled, time 270 min): 70.3% and 71.1% and 78.4%
BP % change vs. baseline (inhaled, time 280 min): 107.1% and 94.9% and 99.2%
PAP % change vs. baseline (inhaled, time 280 min): 65.8% and 75.6% and 79.7%
BP % change vs. baseline (inhaled, time 290 min): 107.1% and 94.0% and 98.3%
PAP % change vs. baseline (inhaled, time 290 min): 68.3% and 73.4% and 79.9%
BP % change vs. baseline (inhaled, time 300 min): 107.1% and 94.9% and 99.2%
PAP % change vs. baseline (inhaled, time 300 min): 69.1% and 76.2% and 79.6%
BP % change vs. baseline (inhaled, time 310 min): 107.1% and 94.9% and 98.3%
PAP % change vs. baseline (inhaled, time 310 min): 62.8% and 79.9% and 79.5%
BP % change vs. baseline (inhaled, time 320 min): 104.7% and 94.9% and 99.2%
PAP % change vs. baseline (inhaled, time 320 min): 61.8% and 76.5% and 81.3%
BP % change vs. baseline (inhaled, time 330 min): 107.1% and 94.0% and 101.0%
PAP % change vs. baseline (inhaled, time 330 min): 63.1% and 77.9% and 83.3%
lung selectivity (inhaled, nominal dose of 100 μg/kg): good lung selectivity

O=C(O)CCCCN(CCc1cc(F)ccc1OCc1ccc(-c2nc3cc(Cl)ccc3o2)cc1)C1CCCc2nc(C(=O)O)ccc21 (single isomer, unassigned) [comparative example 3, (5)-{(4-carboxybutyl)[2-(2-{[4-(5-chloro-1,3-benzoxazol-2-yl)benzyl]oxy}-5-fluorophenyl)ethyl]amino}-5,6,7,8-tetrahydroquinoline-2-carboxylic acid]
time of maximum effect on PAP (after inhaled application (nebulization), comparative example 11 30 μg/kg, Cinaciguat 3 and 10 μg/kg, Riociguat 100 μg/kg, comparative example 3 30 μg/kg): 30 min
duration of action (PAP decrease) (after inhaled application (nebulization), comparative example 11 30 μg/kg, Cinaciguat 3 and 10 μg/kg, Riociguat 100 μg/kg, comparative example 3 30 μg/kg, observation interval 240 min): 120 min
% changes in BP vs baseline [1]: 100% and 99%
% changes in PAP vs baseline [1]: 100% and 99%
% changes in BP vs baseline [2]: 98% and 93%
% changes in PAP vs baseline [2]: 103% and 99%
% changes in BP vs baseline [3]: 94% and 87%
% changes in PAP vs baseline [3]: 103% and 97%
% changes in BP vs baseline [4]: 95% and 84%
% changes in PAP vs baseline [4]: 104% and 98%
% changes in BP vs baseline [5]: 97% and 81%
% changes in PAP vs baseline [5]: 105% and 95%
% changes in BP vs baseline [6]: 98% and 86%
% changes in PAP vs baseline [6]: 106% and 95%
% changes in BP vs baseline [7]: 101% and 88%
% changes in PAP vs baseline [7]: 108% and 94%
% changes in BP vs baseline [8]: 103% and 88%
% changes in PAP vs baseline [8]: 108% and 93%
% changes in BP vs baseline [9]: 104% and 92%
% changes in PAP vs baseline [9]: 110% and 96%
% changes in BP vs baseline [10]: 106% and 95%
% changes in PAP vs baseline [10]: 110% and 94%
% changes in BP vs baseline [11]: 107% and 96%
% changes in PAP vs baseline [11]: 111% and 93%
% changes in BP vs baseline [12]: 109% and 100%
% changes in PAP vs baseline [12]: 111% and 93%
% changes in BP vs baseline [13]: 111% and 107%
% changes in PAP vs baseline [13]: 112% and 95%
% changes in BP vs baseline [14]: 111% and 104%
% changes in PAP vs baseline [14]: 112% and 92%
% changes in BP vs baseline [15]: 112% and 103%
% changes in PAP vs baseline [15]: 113% and 93%
% changes in BP vs baseline [16]: 112% and 107%
% changes in PAP vs baseline [16]: 113% and 93%
% changes in BP vs baseline [17]: 112% and 110%
% changes in PAP vs baseline [17]: 112% and 92%
% changes in BP vs baseline [18]: 113% and 108%
% changes in PAP vs baseline [18]: 110% and 92%
% changes in BP vs baseline [19]: 113% and 108%
% changes in PAP vs baseline [19]: 112% and 93%
% changes in BP vs baseline [20]: 113%
% changes in PAP vs baseline [20]: 111% and 93%
% changes in BP vs baseline [21]: 112% and 110%
% changes in PAP vs baseline [21]: 110% and 93%
% changes in BP vs baseline [22]: 112% and 109%
% changes in PAP vs baseline [22]: 109% and 93%
% changes in BP vs baseline [23]: 113%
% changes in PAP vs baseline [23]: 109% and 96%
% changes in BP vs baseline [24]: 111% and 112%
% changes in PAP vs baseline [24]: 109% and 94%
% changes in BP vs baseline [25]: 110% and 112%
% changes in PAP vs baseline [25]: 109% and 94%
% changes in BP vs baseline [26]: 99% and 96%
% changes in PAP vs baseline [26]: 99%
lung selectivity with respect to the hemodynamic effect (inhaled, 30 μg/kg): good lung selectivity
